Active and inactive are the calls of the source.
Tests used:
Cytochrome P450 2C9 = Cytochrome P450 2C9 (Homo sapiens, UniProt P11712)
[1] = molecular target: T1, DNA repair protein RAD52 homolog (Homo sapiens, UniProt P43351); type: functional, biochemical
T1 sequence (P43351 whole entry): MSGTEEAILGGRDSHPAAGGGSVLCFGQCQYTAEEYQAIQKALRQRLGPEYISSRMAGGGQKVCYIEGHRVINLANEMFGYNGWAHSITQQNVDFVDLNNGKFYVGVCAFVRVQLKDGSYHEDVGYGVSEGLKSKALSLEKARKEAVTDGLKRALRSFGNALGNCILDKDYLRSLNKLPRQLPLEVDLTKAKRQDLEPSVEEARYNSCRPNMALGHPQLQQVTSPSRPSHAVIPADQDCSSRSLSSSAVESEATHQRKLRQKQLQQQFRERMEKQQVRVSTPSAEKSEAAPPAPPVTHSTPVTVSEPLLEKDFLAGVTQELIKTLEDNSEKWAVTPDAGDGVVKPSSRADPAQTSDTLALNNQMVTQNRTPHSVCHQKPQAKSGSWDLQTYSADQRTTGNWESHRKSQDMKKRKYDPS

[2] = DRD fibroblast viability loss – cell-based, non-viral oncogenic, luminescence, dose response (AID 1934); type: functional; details: Homo sapiens
BJ [3] = test: cells; type: functional, cell-based; details: Homo sapiens
[4] = fluconazole-exposed Candida albicans growth modulators – fluorescence, retest, confirmation (AID 2467); type: functional, cell-based
BJ [5] = test: BJ-TERT fibroblast viability loss – cell-based, RAS-independent, luminescence, dose response (AID 1933); type: functional; details: Homo sapiens
BJ [6] = test: BJ-TERT-LT-ST fibroblast viability loss – cell-based, RAS-independent, luminescence, dose response (AID 1935); type: functional; details: Homo sapiens;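 also: BJ fibroblasts immortalized with TERT plus LT and ST oncogenes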
[7] = NIH-3T3 fibroblast cytotoxicity, dose response, cytotoxicity control, cell-based, fluorescence, Alamar Blue, secondary assay (AID 2327); type: functional;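 also: NIH-3T3 mouse fibroblasts cultured with fluconazole at 8 µg/mL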
BJ [8] = test: growth inhibition of engineered Ras-driven BJ cells – cell-based, alamar blue fluorescence, cherrypicked samples, dose response (AID 2631); type: functional; details: Homo sapiens;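 also: confirmatory dose-response assay in RAS-dependent BJ fibroblasts engineered with TERT, LT and ST, with cytotoxicity read by fluorescence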
Aminopeptidase N = molecular target: T2, Aminopeptidase N (Plasmodium falciparum FcB1/Columbia, UniProt O96935); test: malaria alanyl aminopeptidase activity blockers – biochemical, fluorogenic H-Leu-NHMec substrate, 1536-well (AID 1445); design: species or system Plasmodium falciparum 3D7, 3D7
T2 sequence (O96935 whole entry): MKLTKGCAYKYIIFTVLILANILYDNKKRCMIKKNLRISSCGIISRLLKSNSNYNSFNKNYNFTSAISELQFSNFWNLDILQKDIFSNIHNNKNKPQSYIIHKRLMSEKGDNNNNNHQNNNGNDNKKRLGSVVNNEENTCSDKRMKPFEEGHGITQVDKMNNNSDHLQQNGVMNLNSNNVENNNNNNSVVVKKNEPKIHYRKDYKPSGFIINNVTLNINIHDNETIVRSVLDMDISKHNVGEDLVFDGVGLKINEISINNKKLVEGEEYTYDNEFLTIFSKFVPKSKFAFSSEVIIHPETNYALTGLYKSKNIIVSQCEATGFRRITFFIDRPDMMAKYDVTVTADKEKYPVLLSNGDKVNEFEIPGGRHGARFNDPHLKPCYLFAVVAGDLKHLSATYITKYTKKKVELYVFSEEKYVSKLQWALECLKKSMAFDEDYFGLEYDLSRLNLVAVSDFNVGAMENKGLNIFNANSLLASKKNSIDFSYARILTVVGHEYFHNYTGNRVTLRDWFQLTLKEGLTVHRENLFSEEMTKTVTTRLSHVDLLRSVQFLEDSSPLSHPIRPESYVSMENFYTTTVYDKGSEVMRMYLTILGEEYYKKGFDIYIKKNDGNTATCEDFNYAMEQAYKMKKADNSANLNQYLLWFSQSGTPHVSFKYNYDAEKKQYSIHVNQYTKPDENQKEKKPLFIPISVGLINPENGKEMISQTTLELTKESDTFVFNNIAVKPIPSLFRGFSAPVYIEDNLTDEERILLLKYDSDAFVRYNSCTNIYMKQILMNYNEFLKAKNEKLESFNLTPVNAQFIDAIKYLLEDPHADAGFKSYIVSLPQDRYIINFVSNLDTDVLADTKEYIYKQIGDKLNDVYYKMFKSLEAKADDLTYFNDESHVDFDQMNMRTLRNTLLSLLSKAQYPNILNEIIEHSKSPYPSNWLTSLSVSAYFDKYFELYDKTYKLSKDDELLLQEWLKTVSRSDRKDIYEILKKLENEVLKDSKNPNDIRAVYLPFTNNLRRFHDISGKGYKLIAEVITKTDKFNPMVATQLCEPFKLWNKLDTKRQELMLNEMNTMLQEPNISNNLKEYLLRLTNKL

[9] = viability of PTEN-deleted HCT116 cells – cell-based, HCT116 PTEN knockout, dose response (AID 1047); type: functional;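 also: HCT116 colon tumor cells with PTEN knocked out; cells exposed to compound for 60 hours before readout; potency for loss of cell viability measured by luminescence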
Vero [10] = test: cells; type: functional, cell-based; details: Chlorocebus sabaeus
[11] = viability of HCT116 lacking mutant beta-catenin – cell-based, human colon tumor, dose response (AID 1045); type: functional;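 also: HCT116 colon tumor cells with beta catenin knocked out; cells exposed to compound for 60 hours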
Vero [12] = test: cells; type: functional; details: Chlorocebus sabaeus
[13] = molecular target: Ras and Rab interactor 1/Tyrosine-protein kinase ABL1 (Homo sapiens, UniProt P00519+Q13671); type: functional;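 also: biochemical TR-FRET dose-response test measuring inhibition of binding between Rin1 and Abl proteins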
[14] = MIN6 cell viability loss – mouse insulinoma, cytotoxicity control, dose response (AID 2122); type: functional;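 also: confirmatory high-throughput counterscreen run to flag cytotoxic compounds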
[15] = NIH3T3 cell viability loss – ATP luminescence, mouse fibroblasts, counter-screen, dose response (AID 2010); type: functional, cell-based;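 also: cells exposed to compound for about 90 hours before reading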
[16] = decrease of insulin promoter-GFP reporter – imaging, high-content screening, mouse beta cells (AID 1628); type: functional; details: MIN6
[17] = Trypanosoma cruzi growth suppression in host cells – NIH3T3 host cells, beta-gal luminescence, confirmation (AID 2044); type: functional, cell-based;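 also: intracellular parasites grown in NIH/3T3 mouse fibroblasts as host cells; luminescent beta-galactosidase reporter signal from transgenic T. cruzi replicating inside host cells; inhibitors lower the luminescence signal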
[18] = molecular target: T3, Corticotropin-releasing factor receptor 2/Corticotropin-releasing factor-binding protein (Homo sapiens, UniProt P24387+Q13324); test: Dose Response confirmation of uHTS hits for small molecule antagonists of the CRF-binding protein and CRF-R2 receptor complex.; type: functional; details: read-out: IC50_Mean
T3 sequence (Q13324 whole entry): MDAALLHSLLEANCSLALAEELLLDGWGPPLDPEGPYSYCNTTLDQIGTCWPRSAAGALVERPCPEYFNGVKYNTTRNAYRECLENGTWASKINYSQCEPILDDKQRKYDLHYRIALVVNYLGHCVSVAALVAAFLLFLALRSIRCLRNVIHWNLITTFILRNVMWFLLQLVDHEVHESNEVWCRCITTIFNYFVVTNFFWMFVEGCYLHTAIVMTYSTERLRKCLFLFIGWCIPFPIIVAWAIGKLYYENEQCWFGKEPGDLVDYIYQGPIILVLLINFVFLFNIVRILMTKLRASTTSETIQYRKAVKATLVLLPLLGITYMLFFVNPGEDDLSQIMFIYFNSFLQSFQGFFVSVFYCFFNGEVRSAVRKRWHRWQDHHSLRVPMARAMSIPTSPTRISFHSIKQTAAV
T3 sequence (P24387 whole entry): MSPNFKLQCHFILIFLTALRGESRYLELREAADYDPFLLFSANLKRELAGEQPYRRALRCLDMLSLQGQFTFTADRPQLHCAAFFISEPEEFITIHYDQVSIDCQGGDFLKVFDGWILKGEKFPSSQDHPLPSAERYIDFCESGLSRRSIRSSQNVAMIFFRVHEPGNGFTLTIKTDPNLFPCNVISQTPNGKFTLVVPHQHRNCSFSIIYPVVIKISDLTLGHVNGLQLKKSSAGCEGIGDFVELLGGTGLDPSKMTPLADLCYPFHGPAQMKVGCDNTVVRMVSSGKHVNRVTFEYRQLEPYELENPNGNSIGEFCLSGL

[19] = molecular target: T3, Corticotropin-releasing factor receptor 2/Corticotropin-releasing factor-binding protein; test: activators of CRF receptor 2 with binding protein – uHTS hits, confirmation (AID 602473); type: functional; details: read-out: EC50_Mean
[20] = blockers of CRF-binding protein–CRF-R2 complex – cell-based, uHTS hits, 384-well, dose response (AID 651639); type: functional, Homo sapiens; details: read-out: IC50_Mean
Cytochrome P450 2C19 = Cytochrome P450 2C19 (Homo sapiens, UniProt P33261); test: Cytochrome panel assay with activity outcomes. Panel member name: p450-cyp2c19 Compounds with AC50 equal or less than 10 uM are considered active; type: functional; details: read-out: AC50
Cytochrome P450 3A4 = Cytochrome P450 3A4 (Homo sapiens, UniProt P08684);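 also: CYP3A4 tested as one member of a cytochrome P450 panel screen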
Cytochrome P450 1A2 = molecular target: T4, Cytochrome P450 1A2 (Homo sapiens, UniProt P05177);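 also: PubChem cytochrome P450 panel assay, CYP1A2 panel member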
T4 sequence (P05177 whole entry): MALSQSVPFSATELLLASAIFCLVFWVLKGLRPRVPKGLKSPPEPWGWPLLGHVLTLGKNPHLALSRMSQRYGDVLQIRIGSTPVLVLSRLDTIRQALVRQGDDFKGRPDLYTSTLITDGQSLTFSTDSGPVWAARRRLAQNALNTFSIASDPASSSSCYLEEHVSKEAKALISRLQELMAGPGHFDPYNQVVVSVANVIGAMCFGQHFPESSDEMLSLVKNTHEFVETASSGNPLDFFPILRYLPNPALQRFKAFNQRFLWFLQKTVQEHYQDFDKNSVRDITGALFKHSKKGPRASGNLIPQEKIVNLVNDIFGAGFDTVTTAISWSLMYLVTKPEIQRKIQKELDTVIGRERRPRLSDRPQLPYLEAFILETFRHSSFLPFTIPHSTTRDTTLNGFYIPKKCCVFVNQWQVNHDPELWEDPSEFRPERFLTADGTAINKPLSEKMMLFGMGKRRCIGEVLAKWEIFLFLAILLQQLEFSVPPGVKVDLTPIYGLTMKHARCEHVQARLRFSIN

Sequence of Cytochrome P450 2C9 (P11712 whole entry): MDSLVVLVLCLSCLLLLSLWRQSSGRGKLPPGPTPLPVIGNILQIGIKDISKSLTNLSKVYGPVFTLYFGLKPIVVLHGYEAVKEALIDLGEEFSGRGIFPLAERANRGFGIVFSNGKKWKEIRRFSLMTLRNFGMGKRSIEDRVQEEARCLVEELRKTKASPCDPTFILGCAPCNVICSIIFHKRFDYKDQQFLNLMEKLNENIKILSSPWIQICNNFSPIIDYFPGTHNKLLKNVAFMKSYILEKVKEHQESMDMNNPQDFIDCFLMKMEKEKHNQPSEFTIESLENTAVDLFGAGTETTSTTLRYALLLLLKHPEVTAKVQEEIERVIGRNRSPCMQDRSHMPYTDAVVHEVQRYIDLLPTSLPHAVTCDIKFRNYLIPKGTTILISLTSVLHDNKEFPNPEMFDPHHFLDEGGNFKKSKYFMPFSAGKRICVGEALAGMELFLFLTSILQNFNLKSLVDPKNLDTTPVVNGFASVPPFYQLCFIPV
Sequence of Ras and Rab interactor 1/Tyrosine-protein kinase ABL1 (P00519 whole entry): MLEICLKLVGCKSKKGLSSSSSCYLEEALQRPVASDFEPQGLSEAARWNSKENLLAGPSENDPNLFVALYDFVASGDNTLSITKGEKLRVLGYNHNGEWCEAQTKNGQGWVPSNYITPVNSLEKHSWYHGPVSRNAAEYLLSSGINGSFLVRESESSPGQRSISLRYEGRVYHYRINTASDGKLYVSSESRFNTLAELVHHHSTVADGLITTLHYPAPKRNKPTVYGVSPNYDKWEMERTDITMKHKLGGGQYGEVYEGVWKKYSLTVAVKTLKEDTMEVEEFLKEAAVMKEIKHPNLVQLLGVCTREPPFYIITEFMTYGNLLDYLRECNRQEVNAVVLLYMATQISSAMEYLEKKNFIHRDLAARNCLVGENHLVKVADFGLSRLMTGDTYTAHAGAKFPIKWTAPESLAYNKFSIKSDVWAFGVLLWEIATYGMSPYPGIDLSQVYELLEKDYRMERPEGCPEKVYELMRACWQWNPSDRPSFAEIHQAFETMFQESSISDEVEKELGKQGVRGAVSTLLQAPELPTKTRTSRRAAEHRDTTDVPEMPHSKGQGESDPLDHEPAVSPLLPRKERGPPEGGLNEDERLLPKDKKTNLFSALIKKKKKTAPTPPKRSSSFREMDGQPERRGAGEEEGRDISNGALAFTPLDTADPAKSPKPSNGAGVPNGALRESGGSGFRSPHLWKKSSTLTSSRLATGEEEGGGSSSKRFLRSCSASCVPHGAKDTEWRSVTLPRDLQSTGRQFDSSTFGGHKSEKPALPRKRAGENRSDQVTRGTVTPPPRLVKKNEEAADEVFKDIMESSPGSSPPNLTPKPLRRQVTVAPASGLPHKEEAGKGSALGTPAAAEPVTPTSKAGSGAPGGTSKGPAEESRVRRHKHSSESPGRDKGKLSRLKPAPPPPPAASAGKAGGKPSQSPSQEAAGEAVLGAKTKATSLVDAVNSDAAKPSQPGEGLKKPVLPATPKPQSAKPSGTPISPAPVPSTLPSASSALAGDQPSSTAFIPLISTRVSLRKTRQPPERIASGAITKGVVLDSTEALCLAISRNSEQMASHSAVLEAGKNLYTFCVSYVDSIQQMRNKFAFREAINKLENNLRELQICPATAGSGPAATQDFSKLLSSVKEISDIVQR
Sequence of Ras and Rab interactor 1/Tyrosine-protein kinase ABL1 (Q13671 whole entry): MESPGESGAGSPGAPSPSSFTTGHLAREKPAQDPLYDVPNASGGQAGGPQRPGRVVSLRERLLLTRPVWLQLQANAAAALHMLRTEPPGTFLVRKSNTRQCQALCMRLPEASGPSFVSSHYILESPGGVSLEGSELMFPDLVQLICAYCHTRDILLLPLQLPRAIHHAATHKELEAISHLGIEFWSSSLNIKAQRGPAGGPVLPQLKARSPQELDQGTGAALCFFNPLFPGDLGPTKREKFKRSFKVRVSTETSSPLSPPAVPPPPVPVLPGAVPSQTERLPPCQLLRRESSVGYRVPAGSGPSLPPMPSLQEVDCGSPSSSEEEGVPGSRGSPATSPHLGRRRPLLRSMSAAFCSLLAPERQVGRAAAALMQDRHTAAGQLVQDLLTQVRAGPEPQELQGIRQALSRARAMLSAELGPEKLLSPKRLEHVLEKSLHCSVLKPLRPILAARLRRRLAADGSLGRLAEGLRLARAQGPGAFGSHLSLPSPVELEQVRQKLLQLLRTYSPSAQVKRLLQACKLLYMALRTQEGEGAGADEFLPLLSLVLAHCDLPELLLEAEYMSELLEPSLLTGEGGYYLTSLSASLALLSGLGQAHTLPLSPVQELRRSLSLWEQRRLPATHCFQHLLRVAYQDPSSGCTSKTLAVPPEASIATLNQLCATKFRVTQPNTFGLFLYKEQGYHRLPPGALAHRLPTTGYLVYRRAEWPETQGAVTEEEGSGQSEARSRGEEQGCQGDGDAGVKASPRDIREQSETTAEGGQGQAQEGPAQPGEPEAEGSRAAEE
Sequence of Cytochrome P450 3A4 (P08684 whole entry): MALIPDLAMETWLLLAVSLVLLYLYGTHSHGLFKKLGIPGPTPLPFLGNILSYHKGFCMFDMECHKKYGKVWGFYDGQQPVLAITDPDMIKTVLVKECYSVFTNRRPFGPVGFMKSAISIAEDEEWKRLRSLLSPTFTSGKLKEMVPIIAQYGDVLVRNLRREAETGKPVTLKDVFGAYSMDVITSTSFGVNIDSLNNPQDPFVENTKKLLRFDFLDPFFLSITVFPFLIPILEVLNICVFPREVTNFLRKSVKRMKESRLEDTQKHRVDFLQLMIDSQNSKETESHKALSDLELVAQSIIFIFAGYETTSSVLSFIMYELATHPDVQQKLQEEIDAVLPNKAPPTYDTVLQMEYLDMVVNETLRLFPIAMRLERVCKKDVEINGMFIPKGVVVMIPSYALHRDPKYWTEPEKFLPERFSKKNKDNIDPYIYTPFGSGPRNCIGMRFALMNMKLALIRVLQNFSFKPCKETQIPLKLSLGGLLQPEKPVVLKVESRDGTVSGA
Sequence of Cytochrome P450 2C19 (P33261 whole entry): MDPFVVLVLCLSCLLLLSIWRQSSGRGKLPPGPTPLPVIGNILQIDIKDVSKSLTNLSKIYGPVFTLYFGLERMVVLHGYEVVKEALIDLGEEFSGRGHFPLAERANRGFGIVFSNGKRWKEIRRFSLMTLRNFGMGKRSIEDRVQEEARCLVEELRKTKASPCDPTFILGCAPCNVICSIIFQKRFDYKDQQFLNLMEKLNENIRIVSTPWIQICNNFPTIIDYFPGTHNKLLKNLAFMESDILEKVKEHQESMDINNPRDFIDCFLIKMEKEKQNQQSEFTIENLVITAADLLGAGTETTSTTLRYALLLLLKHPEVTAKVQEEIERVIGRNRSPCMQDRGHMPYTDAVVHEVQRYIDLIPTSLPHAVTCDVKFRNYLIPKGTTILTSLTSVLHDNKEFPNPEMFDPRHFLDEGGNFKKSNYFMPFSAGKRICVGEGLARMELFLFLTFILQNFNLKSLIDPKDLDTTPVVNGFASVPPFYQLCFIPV

## O=C(Nc1cccc2ccccc12)c1cn(-c2ccccc2)nc1-c1cccs1
Cytochrome P450 2C9
  AC50: inconclusive

## CCCCCCCCCC[n+]1cccc2c3ccccc3ccc21
[1]
  AC50: 6.58 µM (active)
[2]
  EC50: 8.72 µM (active)
BJ [3]
  EC50: 11.8 µM (active)
[4]
  EC50: 0.723 µM (active)
BJ [5]
  EC50: 2.78 µM (active)
BJ [6]
  EC50: 10.2 µM (active)
[7]
  EC50: > 150 µM (inactive)
BJ [8]
  EC50: 5.93 µM (active)
Aminopeptidase N
  IC50: 89.6 µM (active)

## CCc1ccc(C(=O)/C=C/c2ccc([N+](=O)[O-])o2)cc1
[9]
  EC50: 2.25 µM (active)
[2]
  EC50: 5.5 µM (inconclusive)
Vero [10]
  IC50: > 25 µM (active)
BJ [3]
  EC50: > 150 µM (inconclusive)
[11]
  EC50: 1.69 µM (active)
BJ [5]
  EC50: 5.72 µM (inconclusive)
BJ [6]
  EC50: 4.02 µM (inconclusive)
BJ [8]
  EC50: 0.57 µM (active)
Vero [12]
  CC50: 12.3 µM (active)

## CC12CCC(=O)N1C(C(=O)Nc1nnc(SCc3ccccc3F)s1)CS2 (configuration not stated)
[13]
  IC50: 4.08 µM (active)

## Cc1cc(C)n(-c2nc(NCCC(C)C)c3c4c(sc3n2)COC(C)(C)C4)n1
[14]
  IC50: 2.26 µM (active)
[15]
  EC50: > 60 µM (not active)
[16]
  IC50: 3.09 µM (active)
[17]
  EC50: 1.64 µM (active)

## COc1ccc(NC(=O)CN(C)C(=O)Cc2ccc(S(=O)(=O)N3CCOCC3)s2)cc1
[13]
  IC50: 2.03 µM (active)

## CN(C)c1ccc(C=C2C(=O)OC3(CCCC3)OC2=O)cc1
[18]
  IC50: 2.41 µM (active)
[19]
  EC50: 44.2 µM (active)
[20]
  IC50: 2.36 µM (active)

## Cc1cc(C)cc(-n2nnc(C(=O)NCc3ccccc3Cl)c2N)c1
Cytochrome P450 2C19
  AC50: 3.16 µM (inconclusive)
Cytochrome P450 3A4
  AC50: 15.8 µM (inconclusive)
Cytochrome P450 1A2
  AC50: 1.58 µM (inconclusive)
Cytochrome P450 2C9
  AC50: inconclusive
